Measured values as given in PubChem BioAssay (NCI).
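Compound exposure: 48 hours, 5 concentrations, 96-well plates. GI50: concentration for 50% inhibition of growth. TGI: concentration producing complete growth inhibition.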

Key:
Test in all cases: DTP human tumour cell line panel, 48 h
[1] = test system: LOX IMVI melanoma
[2] = test system: K-562 leukemia
[3] = test system: NCI-H522 lung
[4] = test system: COLO 205 colon
[5] = test system: IGROV1 ovarian
[6] = test system: T-47D breast
[7] = test system: SF-295 CNS
[8] = test system: HOP-62 NSCLC
[9] = test system: A549 NSCLC
[10] = test system: PC-3 prostate
[11] = test system: UACC-257 melanoma
[12] = test system: SNB-19 CNS
[13] = test system: A498 renal
[14] = test system: NCI-H460 lung
[15] = test system: NCI-H23 lung
[16] = test system: MDA-MB-435
[17] = test system: NCI-H226 lung
[18] = test system: SW-620 colon
[19] = test system: RXF 393 renal
[20] = test system: SF-539 CNS
[21] = test system: HCC-2998 colon
[22] = test system: OVCAR-8 ovarian
[23] = test system: ACHN renal
[24] = test system: HCT-15 colon
[25] = test system: OVCAR-4 ovarian
[26] = test system: MCF7 breast
[27] = test system: TK-10 renal
[28] = test system: EKVX NSCLC
[29] = test system: CAKI-1 renal
[30] = test system: MOLT-4 leukemia
[31] = test system: UO-31 renal
[32] = test system: CCRF-CEM leukemia
[33] = test system: SR leukemia
[34] = test system: RPMI-8226 leukemia
[35] = test system: SN12C renal
[36] = test system: HL-60(TB) leukemia
[37] = test system: OVCAR-3 ovarian
[38] = test system: U251 CNS
[39] = test system: UACC-62 melanoma
[40] = test system: MDA-MB-468 breast
[41] = test system: HS 578T breast
[42] = test system: NCI/ADR-RES ovarian
[43] = test system: KM12 colon
[44] = test system: HCT-116 colon
[45] = test system: MALME-3M melanoma
[46] = test system: BT-549 breast
[47] = test system: M14 melanoma
[48] = test system: SK-MEL-5 melanoma
[49] = test system: OVCAR-5 ovarian
[50] = test system: HOP-92 NSCLC
[51] = test system: DU-145 prostate
[52] = test system: SK-OV-3 ovarian
[53] = test system: SK-MEL-28 melanoma
[54] = test system: HT29 colon
[55] = test system: SK-MEL-2 melanoma
[56] = test system: 786-0 renal
[57] = test system: SF-268 CNS
[58] = test system: SNB-75 CNS
[59] = test system: MDA-MB-231 breast

O=C(N/C(=C1/OCCN1Cc1ccccc1)[P+](c1ccccc1)(c1ccccc1)c1ccccc1)c1ccccc1
GI50 [1]: 4.12 µM
TGI [1]: 15.1 µM
GI50 [2]: 2.08 µM
TGI [2]: > 100 µM
GI50 [3]: 1.83 µM
TGI [3]: 6.36 µM
GI50 [4]: 2.66 µM
TGI [4]: 7.46 µM
GI50 [5]: 2.47 µM
TGI [5]: 9.71 µM
GI50 [6]: 2.41 µM
TGI [6]: 12.9 µM
GI50 [7]: 9.92 µM
TGI [7]: 21.9 µM
GI50 [8]: 11.3 µM
TGI [8]: 25 µM
GI50 [9]: 15.1 µM
TGI [9]: 54.4 µM
GI50 [10]: 3.77 µM
TGI [10]: 16.4 µM
GI50 [11]: 2.22 µM
TGI [11]: 5.97 µM
GI50 [12]: 2.79 µM
TGI [12]: 10.7 µM
GI50 [13]: 16.4 µM
TGI [13]: 31.4 µM
GI50 [14]: 3.71 µM
TGI [14]: 14.6 µM
GI50 [15]: 3.16 µM
TGI [15]: 13.3 µM
GI50 [16]: 3.2 µM
TGI [16]: 12 µM
GI50 [17]: 3.91 µM
TGI [17]: 15.6 µM
GI50 [18]: 4.51 µM
TGI [18]: 17.1 µM
GI50 [19]: 2.46 µM
TGI [19]: 10.3 µM
GI50 [20]: 6.59 µM
TGI [20]: 19.6 µM
GI50 [21]: 2.68 µM
TGI [21]: 9.86 µM
GI50 [22]: 4.25 µM
TGI [22]: 16.9 µM
GI50 [23]: 13.4 µM
TGI [23]: 26.5 µM
GI50 [24]: 15.6 µM
TGI [24]: 30.2 µM
GI50 [25]: 5 µM
TGI [25]: 21.8 µM
GI50 [26]: 2.71 µM
TGI [26]: 11.3 µM
GI50 [27]: 4.06 µM
TGI [27]: 16.8 µM
GI50 [28]: 3.63 µM
TGI [28]: 12.2 µM
GI50 [29]: 5.76 µM
TGI [29]: 21.7 µM
GI50 [30]: 3.36 µM
TGI [30]: 68.3 µM
GI50 [31]: 15.5 µM
TGI [31]: 29.1 µM
GI50 [32]: 3.84 µM
TGI [32]: 29.9 µM
GI50 [33]: 2.7 µM
TGI [33]: 11.6 µM
GI50 [34]: 1.14 µM
TGI [34]: 3.94 µM
GI50 [35]: 3.34 µM
TGI [35]: 11.7 µM
GI50 [36]: 1.78 µM
TGI [36]: 5.46 µM
GI50 [37]: 2.78 µM
TGI [37]: 10.8 µM
GI50 [38]: 3.24 µM
TGI [38]: 13 µM
GI50 [39]: 2.05 µM
TGI [39]: 6.71 µM
GI50 [40]: 1.45 µM
TGI [40]: 5.68 µM
GI50 [41]: 3.07 µM
TGI [41]: 20.7 µM
GI50 [42]: > 100 µM
TGI [42]: > 100 µM
GI50 [43]: 3.4 µM
TGI [43]: 11.9 µM
GI50 [44]: 3.09 µM
TGI [44]: 12.9 µM
GI50 [45]: 1.66 µM
TGI [45]: 3.7 µM
GI50 [46]: 2.47 µM
TGI [46]: 8.75 µM
GI50 [47]: 3.67 µM
TGI [47]: 15.7 µM
GI50 [48]: 1.58 µM
TGI [48]: 2.93 µM
GI50 [49]: 13.5 µM
TGI [49]: 26.8 µM
GI50 [50]: 1.99 µM
TGI [50]: 7.37 µM
GI50 [51]: 4.46 µM
TGI [51]: 17.4 µM
GI50 [52]: 10.3 µM
TGI [52]: 27.2 µM
GI50 [53]: 3.75 µM
TGI [53]: 14.9 µM
GI50 [54]: 6.13 µM
TGI [54]: 29.8 µM
GI50 [55]: 2.36 µM
TGI [55]: 6.08 µM
GI50 [56]: 10.7 µM
TGI [56]: 23.8 µM
GI50 [57]: 3.41 µM
TGI [57]: 15.7 µM
GI50 [58]: 1.62 µM
TGI [58]: 10.7 µM
GI50 [59]: 2.1 µM
TGI [59]: 5.81 µM
